Data: patent publication US7759369B2, “Pyridine compounds for the treatment of prostaglandin mediated diseases” (Glaxo Group Limited, priority 2004, dated 2010)
Counter-ions that a name gives are not always drawn.

Key:
[1] = target: T1, EP1 receptors (Homo sapiens, UniProt P34995); test: human EP1 calcium mobilisation assay (CHO-K1 cells, PGE2, FLIPR); assay type: cell-based; parameters: expressed in transfected cells; host or cells: CHO-K1; settings: free bases or sodium salts; averages of a number of experiments; read-out: functional pKi value, human EP1 calcium mobilisation assay (converted)
T1 sequence (P34995 1-402): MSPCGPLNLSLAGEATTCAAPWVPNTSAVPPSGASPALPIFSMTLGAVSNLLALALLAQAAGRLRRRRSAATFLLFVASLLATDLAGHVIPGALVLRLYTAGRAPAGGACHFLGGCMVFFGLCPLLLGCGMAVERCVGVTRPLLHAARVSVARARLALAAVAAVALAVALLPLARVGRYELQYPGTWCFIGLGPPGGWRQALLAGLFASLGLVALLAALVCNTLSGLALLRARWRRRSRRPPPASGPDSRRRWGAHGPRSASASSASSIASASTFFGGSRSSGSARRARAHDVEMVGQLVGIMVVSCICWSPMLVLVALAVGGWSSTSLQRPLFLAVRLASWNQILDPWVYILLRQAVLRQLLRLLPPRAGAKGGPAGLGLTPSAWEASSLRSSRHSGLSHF
Experimental: Briefly, the antagonist properties of compounds are assessed by their ability to inhibit the mobilisation of intracellular calcium ([Ca^2+]i) in response to activation of EP1 or EP3 receptors by the natural agonist hormone prostaglandin E2 (PGE2). Increasing concentrations of antagonist reduce the amount of calcium that a given concentration of PGE2 can mobilise. The net effect is to displace the PGE2 concentration-effect curve to higher concentrations of PGE2. The amount of calcium produced is assessed using a calcium-sensitive fluorescent dye such as Fluo-4, AM and a suitable instrument such as a Fluorimetric Imaging Plate Reader (FLIPR). Increasing amounts of [Ca^2+]i produced by receptor activation increase the amount of fluorescence produced by the dye and give rise to an increasing signal. The signal may be detected using the FLIPR instrument and the data generated may be analysed with suitable curve-fitting software.
The human EP1 or EP3 calcium mobilisation assay (hereafter referred to as ‘the calcium assay’) utilises Chinese hamster ovary-K1 (CHO-K1) cells into which a stable (pCIN; BioTechniques 20 (1996): 102-110) vector containing either EP1 or EP3 cDNA has previously been transfected. Cells are cultured in suitable flasks containing culture medium such as DMEM:F-12 supplemented with 10% v/v foetal calf serum, 2 mM L-glutamine, 0.25 mg/ml geneticin, 100 μM flurbiprofen and 10 µg/ml puromycin.
For assay, cells are harvested using a proprietary reagent that dislodges cells such as Versene. Cells are re-suspended in a suitable quantity of fresh culture media for introduction into a 384-well plate. Following incubation for 24 hours at 37° C. the culture media is replaced with a medium containing Fluo-4 and the detergent pluronic acid, and a further incubation takes place. Concentrations of compounds are then added to the plate in order to construct concentration-effect curves. This may be performed on the FLIPR in order to assess the agonist properties of the compounds. Concentrations of PGE2 are then added to the plate in order to assess the antagonist properties of the compounds.
The data so generated may be analysed by means of a computerised curve-fitting routine. The concentration of compound that elicits a half-maximal inhibition of the calcium mobilisation induced by PGE2 (pIC50) may then be estimated.

[2] = target: T1, EP1 receptors; test: Binding assay for the human prostanoid EP1 receptor (competition with [3H]-PGE2); parameters: expressed in transfected cells; host or cells: CHO-K1 (membrane fraction); settings: averages of a number of experiments; Example 3 as sodium salt; read-out: pIC50 value in the binding assay for the human prostanoid EP1 receptor (converted)
Experimental: Binding Assay for the Human Prostanoid EP1 Receptor
Competition assay using [^3H]-PGE2.
Compound potencies are determined using a radioligand binding assay. In this assay compound potencies are determined from their ability to compete with tritiated prostaglandin E2 ([^3H]-PGE2) for binding to the human EP1 receptor.
This assay utilises Chinese hamster ovary-K1 (CHO-K1) cells into which a stable vector containing the EP1 cDNA has previously been transfected. Cells are cultured in suitable flasks containing culture medium such as DMEM:F-12 supplemented with 10% v/v foetal calf serum, 2 mM L-glutamine, 0.25 mg/ml geneticin, 10 μg/ml puromycin and 10 μM indomethacin.
Cells are detached from the culture flasks by incubation in calcium and magnesium free phosphate buffered saline containing 1 mM disodium ethylenediaminetetraacetic acid (Na2EDTA) and 10 μM indomethacin for 5 min. The cells are isolated by centrifugation at 250×g for 5 mins and suspended in an ice cold buffer such as 50 mM Tris, 1 mM Na2EDTA, 140 mM NaCl, 10 μM indomethacin (pH 7.4). The cells are homogenised using a Polytron tissue disrupter (2×10s burst at full setting), centrifuged at 48,000×g for 20 mins and the pellet containing the membrane fraction is washed (optional) three times by suspension and centrifugation at 48,000×g for 20 mins. The final membrane pellet is suspended in an assay buffer such as 10 mM 2-[N-morpholino]ethanesulphonic acid, 1 mM Na2EDTA, 10 mM MgCl2 (pH 6). Aliquots are frozen at −80° C. until required.
For the binding assay the cell membranes, competing compounds and [^3H]-PGE2 (3 nM final assay concentration) are incubated in a final volume of 100 μl for 30 min at 30° C. All reagents are prepared in assay buffer. Reactions are terminated by rapid vacuum filtration over GF/B filters using a Brandell cell harvester. The filters are washed with ice cold assay buffer, dried and the radioactivity retained on the filters is measured by liquid scintillation counting in Packard TopCount scintillation counter.
The data are analysed using non linear curve fitting techniques to determine the concentration of compound producing 50% inhibition of specific binding (IC50).

Ki [1] | IC50 [2] | Compound
≤ 31.6 nM | ≤ 31.6 nM | CCCS(=O)(=O)NC(=O)c1cccc(Cc2cc(Cl)ccc2OCc2ccc(Cl)cc2F)n1 [Example 30, 6-[(5-Chloro-2-{[(4-chloro-2-fluorophenyl)methyl]oxy}-phenyl)methyl]-N-(propylsulphonyl)-2-pyridinecarboxamide]
< 1000 nM | ≤ 31.6 nM | O=C(NS(=O)(=O)c1ccc(Br)cc1)c1cccc(Cc2cc(Cl)ccc2OCc2ccc(Cl)cc2F)n1 [Example 33, N-[(4-Bromophenyl)sulphonyl]-6-[(5-chloro-2-{[(4-chloro-2-fluorophenyl)methyl]oxy}phenyl)-methyl]-2-pyridinecarboxamide]
< 1000 nM | ≤ 31.6 nM | Cc1ccc(C(=O)O)nc1Cc1cc(Cl)ccc1OCc1ccc(Cl)cc1F [Example 39, 6-[(5-Chloro-2-{[(4-chloro-2-fluorophenyl)methyl]oxy}-phenyl)methyl]-5-methyl-2-pyridinecarboxylic acid, sodium salt]
< 1000 nM | ≤ 31.6 nM | O=C(O)c1cccc(Cc2cc(Cl)ccc2OCC2CCCC2)n1 [Example 14, Sodium 6-({5-chloro-2-[(cyclopentylmethyl)oxy]phenyl}methyl)-2-pyridinecarboxylate]
≤ 31.6 nM | ≤ 31.6 nM | Fc1cc(Cl)ccc1COc1ccc(Cl)cc1Cc1cccc(-c2nnn[nH]2)n1 [Example 38, 2-[(5-Chloro-2-{[(4-chloro-2-fluorophenyl)methyl]oxy}phenyl)-methyl]-6-(1H-tetrazol-5-yl)pyridine]
≤ 31.6 nM | ≤ 31.6 nM | O=C(NS(=O)(=O)c1cccc(Br)c1)c1cccc(Cc2cc(Cl)ccc2OCc2ccc(Cl)cc2F)n1 [Example 34, N-[(3-Bromophenyl)sulphonyl]-6-[(5-chloro-2-{[(4-chloro-2-fluorophenyl)methyl]oxy}phenyl)-methyl]-2-pyridinecarboxamide]
≤ 31.6 nM | ≤ 31.6 nM | O=C(O)c1cccc(Cc2cc(Cl)ccc2OCc2ccc(F)cc2F)n1 [Example 4, Sodium 6-[(5-chloro-2-{[(2,4-difluorophenyl)methyl]oxy}phenyl)methyl]-2-pyridinecarboxylate]
≤ 31.6 nM | ≤ 31.6 nM | O=C(NS(=O)(=O)c1ccccc1)c1cccc(Cc2cc(Cl)ccc2OCc2ccc(Cl)cc2F)n1 [Example 28, 6-[(5-chloro-2-{[(4-chloro-2-fluorophenyl)methyl]oxy}phenyl)-methyl]-N-(phenylsulphonyl)-2-pyridinecarboxamide]
< 1000 nM | ≤ 31.6 nM | O=C(O)c1cccc(Cc2cc(Cl)ccc2OCc2ccc(F)cc2Cl)n1 [Example 11, Sodium 6-[(5-chloro-2-{[(2-chloro-4-fluorophenyl)methyl]oxy}phenyl)methyl]-2-pyridinecarboxylate]
≤ 31.6 nM | ≤ 31.6 nM | Cc1noc(C)c1S(=O)(=O)NC(=O)c1cccc(Cc2cc(Cl)ccc2OCc2ccc(Cl)cc2F)n1 [Example 36, 6-[(5-Chloro-2-{[(4-chloro-2-fluorophenyl)methyl]oxy}-phenyl)methyl]-N-[(3,5-dimethyl-4-isoxazolyl)sulphonyl]-2-pyridinecarboxamide]
< 1000 nM | ≤ 31.6 nM | O=C(O)c1cccc(Cc2cc(Cl)ccc2OCc2cc(F)c(F)cc2F)n1 [Example 10, Sodium 6-[(5-chloro-2-{[(2,4,5-trifluorophenyl)methyl]oxy}phenyl)methyl]-2-pyridinecarboxylate]
≤ 31.6 nM | ≤ 31.6 nM | CS(=O)(=O)NC(=O)c1cccc(Cc2cc(Cl)ccc2OCc2ccc(Cl)cc2F)n1 [Example 29, 6-[(5-Chloro-2-{[(4-chloro-2-fluorophenyl)methyl]oxy}-phenyl)methyl]-N-(methylsulphonyl)-2-pyridinecarboxamide]
≤ 31.6 nM | ≤ 31.6 nM | O=C(O)c1cccc(Cc2cc(Cl)ccc2OCc2ccc(Cl)cc2Cl)n1 [Example 12, Sodium 6-[(5-chloro-2-{[(2,4-dichlororophenyl)methyl]oxy}phenyl)methyl]-2-pyridinecarboxylate]
≤ 31.6 nM | ≤ 31.6 nM | O=C(O)c1cccc(Cc2cc(Cl)ccc2OCc2ccc(Cl)cc2F)n1 [Example 3, Sodium 6-[(5-chloro-2-{[(4-chloro-2-fluorophenyl)methyl]oxy}phenyl)methyl]-2-pyridinecarboxylate]
